Test results taken from article PMC5994430, “Mitochondrial Delivery of Phenol Substructure Triggers Mitochondrial Depolarization and Apoptosis of Cancer Cells” (Frontiers in Pharmacology, 2018).

What was measured:
[1] = system: A549 cells; assay: Mitochondrial depolarization (JC-1); format: cell-based, Human; details: 0.1 μM, 4 h
Description: (§1) Mitochondrial depolarization was measured by staining cells with the fluorescent probe JC-1 (Biotium Inc., Hayward, CA, United States), as described ([Riganti et al., 2015a]). The red fluorescence, index of polarized mitochondria, was detected at 550 nm (λ excitation) and 600 nm (λ emission); the green fluorescence, index of depolarized and damaged mitochondria, was detected at 485 nm (λ excitation) and 535 nm (λ emission). The fluorescence units were used to calculate the percentage of green-fluorescent versus red-fluorescent mitochondria.
(§2) [t] Continuedof three experiments with similar results. (D) Confocal analysis of mitochondrial staining with MitoTracker® Green FM. Magnification: 60 × objective (0.52 numerical aperture); 10 × ocular lens. Bar: 10 μM. The micrographs are representative of three experiments with similar results. (E,F) The electron transport was measured spectrophotometrically in duplicates. ATP levels in mitochondrial extracts was measured by a chemiluminescence-based assay, in duplicates. Data are means ± SD (n = 3). For both panels: ^∗p < 0.001 vs. A549 ctrl cells; °p < 0.001 for BEAS-2B cells vs. the corresponding condition in A549 cells. (G,H) ROS amount in mitochondrial extracts and mitochondrial damage were measured fluorimetrically, in duplicates. Data are means ± SD (n = 3). For both panels: ^∗p < 0.001 vs. A549 ctrl cells; °p < 0.001 for BEAS-2B cells vs. the corresponding condition in A549 cells. There were no statistically significant differences between untreated (ctrl) and compound 1/compound 2-treated BEAS-2B cells for all the parameters analyzed in this figure.

[2] = system: BEAS-2B cells; assay: Mitochondrial depolarization (JC-1); format: cell-based, Human; details: 0.1 μM, 4 h
Description: as §1, §2

[3] = system: mitofusin 1 (MFN1) and mitofusin 2 (MFN2); assay: qRT-PCR of mitofusin mRNA in A549 cells; format: cell-based, Human; details: 0.1 μM, 4 h
Description: Supplementary Figure 4 Effects of TPP-derivatives on mitofusin 1 and mitofusin 2 expression.
A549 and BEAS-2B cells were incubated 4 h in fresh medium (ctrl) or with 0.1 µM of 1 and 2.
Expression of mitofusin 1 (MFN1) and mitofusin 2 (MFN2) mRNA was evaluated by qRT-PCR in
triplicates. Data are means ± SD (n=3).
(1 picture or pasted object on this page, not shown here)

[4] = system: mitochondrial ATP; assay: Mitochondrial ATP in A549 cells; format: cell-based, Human; details: 0.1 μM, 4 h
Description: The amount of ATP was measured on 20 μg of mitochondrial extracts with the ATP Bioluminescent Assay Kit (FL-AA, Sigma Chemical Co.). Data were converted into nmoles/mg mitochondrial proteins, using a calibration curve previously set.
as §2

[5] = system: mitochondrial ROS; assay: Mitochondrial ROS (MitoSOX Red) in A549 cells; format: cell-based, Human; details: 0.1 μM, 4 h
Description: The amount of ROS in mitochondrial extracts was measured fluorimetrically by incubating cell suspension at 37°C for 10 min with 10 μM of MitoSOX Red probe (Invitrogen Life Technologies), as per manufacturer’s instructions. Results were expressed as nmoles/mg mitochondrial proteins, using a calibration curve previously set with serial dilution of H2O2.
as §2, with “= 3). […] There were” for “= 3). For both panels: ^∗p < 0.001 vs. A549 ctrl cells; °p < 0.001 for BEAS-2B cells vs. the corresponding condition in A549 cells. There were”

[6] = system: human cancer cell lines and normal cells; assay: Extracellular LDH release, panel of cancer cell lines and normal cells; format: cell-based; details: 24 h, 0.1, 1 and 10 μM
Excerpt: Human colon cancer HT29 cells, colon-derived normal fibroblast CCD-18Co cells, lung cancer A549 cells, normal human bronchial epithelial (immortalized with adenovirus 12-SV40 virus hybrid Ad12SV40) BEAS-2B cells, breast cancer MDA-MB-231 cells, normal breast epithelial MCF10A cells, human osteosarcoma U-2OS cells were purchased from ATCC (Manassas, VA, United States). Primary osteoblasts were generated as reported previously ([Buondonno et al., 2016]). HMM and HMC were primary cells stabilized in culture as described ([Aldieri et al., 2004]). The use of primary cells was approved by Ethical Committee of the San Luigi Gonzaga Hospital, Orbassano, (protocol #126/2016). […]
The extracellular release of LDH, considered an index of cell damage and necrosis, was measured spectrophotometrically, as reported ([Riganti et al., 2013b]). […] LDH activity was measured in the extracellular medium and in the cell lysate: 50 μl of extracellular medium or 5 μl of cell lysate were incubated at 37°C with 5 mM NADH. The reaction was started by adding 20 mM pyruvic acid and was monitored for 6 min, measuring absorbance at 340 nm using a Synergy HT Multi-Detection Microplate Reader (Bio-Tek Instruments, Winoosky, MT, United States). […] Both intracellular and extracellular enzyme activities were expressed as μmol NADH oxidized/min/dish. […] IC50 was calculated with the CompuSyn software^1. […]

| SMILES | percentage of depolarized mitochondria [1] | mitochondrial depolarization [2] | expression of mitofusin 1 (MFN1) and mitofusin 2 (MFN2) [3] | amount of mitochondrial ATP [4] | mitochondrial ROS [5] | release of LDH in the extracellular medium [6] |
| --- | --- | --- | --- | --- | --- | --- |
| CC(=O)Oc1ccc(C[P+](c2ccccc2)(c2ccccc2)c2ccccc2)cc1.[Br-] [Compound 1] | acutely increased | negligible modifications | no changes | significant decrease | acutely increased | dose-dependent increase |
| O=C(Oc1ccc(C[P+](c2ccccc2)(c2ccccc2)c2ccccc2)cc1C(F)(F)F)c1ccccc1.[Br-] [Compound 2] | acutely increased | negligible modifications | no changes | significant decrease | acutely increased | dose-dependent increase |
